According to US20250026769A1, “PAPD5 INHIBITORS AND METHODS OF USE THEREOF” (The Children's Medical Center Corporation, priority 2021, published 2025):
Where two headings read alike, the source gives them in different places.

How the values were obtained:
[1] = system: TERC 3′ end processing in primary CD34+ human hematopoietic stem and progenitor cells (HSPCs); test: TERC 3′ end processing (RACE) in CRISPR/Cas9-engineered PARN-deficient primary CD34+ HSPCs; type: cell-based; conditions: for TERC 3′ end processing by RACE at 100 nM: day 5 (FIG. 40B); for TERC 3′ end processing by RACE at 1 μM: day 5 (FIG. 40A)
Excerpt: Example 167—Restoration of TERC 3′ end processing in primary CD34+ human hematopoietic stem and progenitor cells (HSPCs). To determine the efficacy of exemplified compounds in a disease-relevant stem cell population, we employed a highly-efficient CRISPR-Cas9 ribonucleoprotein transduction strategy to disrupt the PARN gene in primary human CD34+ hematopoietic stem and progenitor cells (HSPCs), or the control locus AAVS1. FIGS. 40A and 40B show extended TERC forms in CRISPR-Cas9 engineered HSPCs deficient in PARN.

[2] = system: TERC 3′ end processing in DC patient iPSCs; test: TERC 3′ end processing by RACE in DC patient / PARN-mutant iPSCs; type: cell-based, human; conditions: for minimal effective concentration: Homo sapiens, iPSC, patient iPSCs, concentration class at which activity is seen, read-out: iPSC-based RACE activity
Summary of the method: (§1)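 Activity binned by concentration giving effect in DC patient iPSCs: "+" at 1 μM, "++" above 1 nM and below 1 μM, "+++" below 1 nM; ND, not determined.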

[3] = system: hepatitis B surface antigen (HBSAg) from HepG2.2.15 cells, a hepatitis B virus-expressing cell line; test: HBsAg ELISA in supernatant of HepG2.2.15 cells; type: cell-based; conditions: HepG2.2.15, 96 h
Summary of the method: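 HepG2.2.15 cells plated at 50,000/well, then exposed the next day to 3-fold compound dilutions from 100 μM to 333 pM, with DMSO vehicle as control. After 4 days at 37 °C, HBsAg in the supernatant was measured by ELISA. IC50 obtained by nonlinear fitting of averaged replicates.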

[4] = system: telomere length in DC patient iPSCs; test: telomere length / telomere elongation in DC patient iPSCs; type: cell-based, human; conditions: for minimal effective concentration: Homo sapiens, iPSC, patient iPSCs, concentration class at which activity is seen, read-out: iPSC-based Telomere length
Summary of the method: as §1

rPAPD5 = target: T1, rPAPD5 (Homo sapiens, UniProt Q8NDF8); test: differential scanning fluorimetry (DSF) binding and stabilization of rPAPD5; conditions: for ΔTm at 100 µM: read-out: ΔTm at 100 μM; for ΔTm at 1 µM: 1 μM test compound (Table 2a), read-out: ΔTm at 1 μM
T1 construct: made in house
Summary of the method: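 Compound-induced shifts in rPAPD5 melting temperature were determined by thermal shift (DSF). Protein at […] was mixed with a non-extendable ATP analog […] in Tris-HCl (25 mM), MgCl2 (5 mM) and KCl (50 mM), with SYPRO orange at 1:5000. Curves were averages of three measurements analyzed with Thermal Shift software, and ΔTm was referenced to DMSO.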

[5] = system: TERC 3′ ends in human CD19+ cells recovered from mice xenotransplanted with HSPCs; test: TERC 3′ end processing in vivo in human CD19+ cells after xenotransplantation into NBSGW mice; parameters: species or system immunodeficient NBSGW mice with human HSPCs
Excerpt: (§2) Example 168—Restoration of TERC 3′ end processing in vivo in human blood cells after xenotransplantation into immunodeficient mice. To determine the efficacy of orally administered exemplified compounds in primary human HSPCs and blood cells in restoring TERC processing in vivo, highly-efficient CRISPR-Cas9 ribonucleoprotein transduction was employed to disrupt the PARN gene in primary human CD34+ HSPCs or the control locus AAVS1. These genome-edited human HSPCs were xenotransplanted into immunodeficient NOD,B6.SCID Il2rg−/− KitW4l/W41 (NBSGW) mice, which engraft human HSPCs without exposure to radiation or chemotherapy. Six to ten weeks after xenotransplantation, exemplified compounds were administered for 4 to 7 days alongside controls. Thereafter, human hematopoietic cells were recovered from mouse bone marrow, and engraftment was analyzed by flow cytometry. Engrafted human hematopoietic cells were sorted for lineage markers, and CD19+ cells were used for analysis of restoration of TERC 3′ end processing by RNA-ligation mediated 3′ RACE.

[6] = system: engraftment of CD45+, CD19+, CD34+ human blood cells; test: engraftment of human blood cells in xenotransplanted mice by flow cytometry; type: in vivo, immunodeficient NBSGW mice with human HSPCs
Excerpt: as §2

[7] = 10 μM test compound (Table 2a), read-out: ΔTm at 10 μM

T1 sequence (Q8NDF8 68-698 isoform Q8NDF8-5 limits assumed): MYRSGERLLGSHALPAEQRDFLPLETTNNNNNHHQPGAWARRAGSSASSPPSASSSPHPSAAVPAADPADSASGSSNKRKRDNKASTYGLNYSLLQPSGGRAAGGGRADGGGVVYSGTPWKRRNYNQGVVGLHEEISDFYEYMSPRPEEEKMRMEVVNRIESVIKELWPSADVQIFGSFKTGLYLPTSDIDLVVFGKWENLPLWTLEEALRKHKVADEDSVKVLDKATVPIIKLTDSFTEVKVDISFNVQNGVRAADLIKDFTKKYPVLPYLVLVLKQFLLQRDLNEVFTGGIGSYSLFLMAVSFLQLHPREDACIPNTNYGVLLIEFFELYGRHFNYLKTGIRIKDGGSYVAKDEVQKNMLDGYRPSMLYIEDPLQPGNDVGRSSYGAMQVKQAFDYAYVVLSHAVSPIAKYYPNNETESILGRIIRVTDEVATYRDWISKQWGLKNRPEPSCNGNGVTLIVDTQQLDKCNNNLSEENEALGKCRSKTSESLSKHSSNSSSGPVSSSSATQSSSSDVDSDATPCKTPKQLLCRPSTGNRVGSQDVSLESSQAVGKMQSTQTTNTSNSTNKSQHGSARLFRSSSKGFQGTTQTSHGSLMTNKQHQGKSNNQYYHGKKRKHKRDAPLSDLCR

Compound: O=C(O)c1cc(Cl)ccc1Nc1c(C2CCOCC2)cnc2ccc(Cl)cc12 [Compound 296A, 5-chloro-2-[(6-chloro-3-tetrahydropyran-4-yl-4-quinolyl)amino]benzoic acid]
- TERC 3′ end processing by RACE at 100 nM [1]: maturation of TERC 3′ end processing
- TERC 3′ end processing by RACE at 1 μM [1]: maturation of TERC 3′ end processing
- concentration showing maturation of TERC 3′ end processing by RACE ([2]; DC patient iPSCs): 1 nM
- IC50 [3]: 5 nM
- concentration at which telomere elongation was observed ([4]; DC patient iPSCs, after 3-4 weeks of cell culture): 1 nM
- ΔTm at 100 µM (rPAPD5): > 5 °C
- TERC 3′ ends in human CD19+ cells (RACE) ([5]; 32 mg/kg/dose twice daily for 11 doses, with 250 μM in drinking water (FIG. 41A)): maturation of TERC 3′ ends
- aberrant TERC oligo-adenylation in xenotransplanted PARN-deficient human blood cells ([5]; oral, 32 mg/kg/dose twice daily for 11 doses, with 250 μM in drinking water, RACE amplicon sequencing): significantly reversed
- engraftment of CD45+, CD19+, CD34+ human blood cells ([6]; 32 mg/kg/dose twice daily for 11 doses, with 250 μM in drinking water): no change in engraftment

Compound: O=C(O)c1cc(Cl)ccc1Nc1c(N2CCOCC2)cnc2ccc(Cl)cc12 [Compound 339A, 5-chloro-2-[(6-chloro-3-morpholino-4-quinolyl)amino]benzoic acid]
- TERC 3′ end processing by RACE at 100 nM [1]: maturation of TERC 3′ end processing
- TERC 3′ end processing by RACE at 1 μM [1]: maturation of TERC 3′ end processing
- minimal effective concentration [2]: < 0.001 µM
- IC50 [3]: 75 nM
- minimal effective concentration [4]: < 0.001 µM
- ΔTm at 1 µM (rPAPD5): > 5 °C
- ΔTm at 10 µM (rPAPD5; [7]): > 5 °C
- ΔTm at 100 µM (rPAPD5; 100 μM test compound, shift vs DMSO control): > 5 °C
- TERC 3′ ends in human CD19+ cells (RACE) ([5]; 1 mM in drinking water for 7 days (FIG. 41C)): maturation of TERC 3′ ends
- engraftment of CD45+, CD19+, CD34+ human blood cells ([6]; 1 mM in drinking water for 7 days): no change in engraftment

Compound: O=C(O)c1cc(Cl)ccc1Nc1c(N2CCC(F)CC2)cnc2ccc(Cl)cc12 [Compound 392A, 5-chloro-2-[[6-chloro-3-(4-fluoro-1-piperidyl)-4-quinolyl]amino]benzoic acid]
- TERC 3′ end processing by RACE at 100 nM [1]: maturation of TERC 3′ end processing
- TERC 3′ end processing by RACE at 1 μM [1]: maturation of TERC 3′ end processing
- minimal effective concentration [2]: < 0.001 µM
- IC50 [3]: 95 nM
- minimal effective concentration [4]: < 0.001 µM
- ΔTm at 1 µM (rPAPD5): > 5 °C
- ΔTm at 10 µM (rPAPD5; [7]): > 5 °C
- ΔTm at 10 µM (rPAPD5; 10 μM test compound, shift vs DMSO control, read-out: ΔTm (Table 2, starred: the compound was tested at 10 μM)): > 5 °C
- TERC 3′ ends in human CD19+ cells (RACE) ([5]; 32 mg/kg/dose twice daily for 11 doses (FIG. 41D)): maturation of TERC 3′ ends
- engraftment of CD45+, CD19+, CD34+ human blood cells ([6]; 32 mg/kg/dose twice daily for 11 doses): no change in engraftment
